The term IC50 denotes the concentration that gives 50% inhibition. A high value points to a need for much substance.

The results in this text go back to paper PMC5404560, “Towards Selective Mycobacterial ClpP1P2 Inhibitors with Reduced Activity against the Human Proteasome” (Antimicrobial Agents and Chemotherapy, 2017).

Experiment [1] deals with M. smegmatis ΔprcAB. Type of experiment: cell-based.
Experiment [2] deals with Chymase (Homo sapiens, UniProt P23946). Put plainly: Protease panel: Chymase. Type of experiment: biochemical. As to conditions: Table 6; 10-dose response, top 10 μM.
Sequence of Chymase (P23946 22-247, species assumed): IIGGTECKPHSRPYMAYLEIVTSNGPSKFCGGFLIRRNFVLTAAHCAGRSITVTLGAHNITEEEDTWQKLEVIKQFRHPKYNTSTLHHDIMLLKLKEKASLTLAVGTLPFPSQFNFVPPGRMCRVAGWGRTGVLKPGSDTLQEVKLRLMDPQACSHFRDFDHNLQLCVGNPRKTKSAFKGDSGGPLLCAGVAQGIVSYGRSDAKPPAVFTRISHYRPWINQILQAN
Procedure: Protease panel testing was carried out by Reaction Biology Corporation.

For the compound `O=C(N[C@@H](Cc1ccccn1)C(=O)N[C@@H](CCc1ccccc1)B(O)O)c1cnccn1` [Compound 58, ((R)-3-phenyl-1-((S)-2-(pyrazine-2-carboxamido)-3-(pyridin-2-yl)propanamido)propyl)boronic acid], the “M. smegmatis ΔprcAB MIC50” value in experiment [1] (24 h exposure, OD600, concentration inhibiting 50% of growth) worked out at 2.7 ± 0.5 µM. Further, in experiment [1] (M. smegmatis ΔprcAB), the “improvement of bacterial-growth inhibition compared to compound 1” value was “over 2 fold”. Further, in experiment [2], it took 5.75 µM to reach half-maximal inhibition (IC50).
